What was measured:
Assay type in all cases: cell-based
hPPARdelta = biological target: T1, hPPARdelta (Homo sapiens, UniProt Q03181); assay: Gal4-hPPARdelta transactivation assay in COS-7 cells (luciferase); settings: for EC50: Gal4-hPPARδ(LBD) transactivation; for Gal4-hPPARδ(LBD) TOP (% ref): maximal relative activation vs reference; for Emax: COS-7, maximal relative activation vs reference, read-out: Gal4-hPPARδ(LBD) TOP (% ref)
T1 construct: Gal4-hPPARδ(LBD); Gal4 (fusion partner); expressed in transfected cells; host or cells: COS-7 (monkey kidney)
T1 sequence (Q03181 211-439 limits assumed): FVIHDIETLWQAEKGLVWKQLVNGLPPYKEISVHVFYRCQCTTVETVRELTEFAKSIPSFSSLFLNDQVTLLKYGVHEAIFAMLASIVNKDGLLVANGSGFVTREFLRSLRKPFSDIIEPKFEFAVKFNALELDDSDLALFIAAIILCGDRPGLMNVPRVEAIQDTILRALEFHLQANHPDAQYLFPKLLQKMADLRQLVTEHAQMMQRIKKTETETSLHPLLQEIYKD
Method: (§1) Monkey kidney COS-7 cells were maintained in standard culture conditions (Dulbecco's modified Eagle's minimal medium: DMEM) supplemented with 10% fetal calf serum, 1% sodium pyruvate, 1% essential amino acids and 1% antibiotics at 37° C. in a humidified atmosphere of 5% C02 and 95% air. The medium was changed every 2 days. All tested compounds were dissolved in DMSO. Cells were transfected using 2 μl JetPEI™ (Polyplus transfection)/μg of DNA. Briefly, 40 μg of DNA was transfected in a 225 cm^2 culture flask of adherent COS-7 cells (respecting the 1/50 ratio between the Gal4(RE)_TkpGL3 plasmid and the plasmid coding the nuclear receptor of interest (pGal4-hPPARalpha, pGal4-hPPARgamma, pGal4-hPPARdelta, pGal4-mPPARalpha, pGal4-mPPARgamma and pGal4-mPPARdelta) or of the pGal4phi plasmid (negative control). Cells were enzymatically detached and seeded in 384 well plates at the density of 20,000 cells/well and then incubated for 4 hours at 37° C. The activation was automatically performed, by using the Genesis Freedom 200™ (Tecan), in fresh medium supplemented with 2% of synthetic serum, free of lipids (Ultroser™, Biosepra) supplemented with the tested compounds (compound of interest or reference molecules) or vehicle (DMSO 0.1%). The luciferase activity was measured with the Steady-Glo Luciferase Assay System (Promega, Madison, Wis.). All transactivation experiments were performed at least 2 times. Activation curves were realized using SigmaPlot® (version 7.0 from SPSS Inc.) software and took into account all the experimental points. SimgaPlot® was also used to fit the standard curves and then determine the specific EC50 values, maximum effect versus reference molecules and Hill slope. The Emax effect of each new ligand is represented as the ratio of the maximal induction (plateau) obtained with the new ligand and the induction obtained with the corresponding reference compound. The reference compounds for PPARalpha, PPARgamma and PPARdelta were fenofibrate (100 μM), rosiglitazone (10 μM) and GW501516 (1 μM).

hPPARalpha = biological target: T2, hPPARalpha (Homo sapiens, UniProt Q07869); assay: Gal4-hPPARalpha transactivation assay in COS-7 cells (luciferase); settings: for EC50: Gal4-hPPARα(LBD) transactivation; for Gal4-hPPARα(LBD) TOP (% ref): maximal relative activation vs reference; for Emax: COS-7, maximal relative activation vs reference, read-out: Gal4-hPPARα(LBD) TOP (% ref)
T2 construct: Gal4-hPPARα(LBD); Gal4 (fusion partner); expressed in transfected cells; host or cells: COS-7 (monkey kidney)
T2 sequence (Q07869 239-466 limits assumed): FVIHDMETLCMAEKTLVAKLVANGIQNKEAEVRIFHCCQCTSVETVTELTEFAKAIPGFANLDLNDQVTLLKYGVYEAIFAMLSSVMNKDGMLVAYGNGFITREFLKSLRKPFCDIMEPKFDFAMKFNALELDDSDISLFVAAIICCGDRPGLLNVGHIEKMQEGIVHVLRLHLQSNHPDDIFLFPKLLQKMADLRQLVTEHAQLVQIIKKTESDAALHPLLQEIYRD
Method: as §1

hPPARgamma = biological target: T3, hPPARgamma (Homo sapiens, UniProt P37231); assay: Gal4-hPPARgamma transactivation assay in COS-7 cells (luciferase); settings: for EC50: Gal4-hPPARγ(LBD) transactivation; for Gal4-hPPARγ(LBD) TOP (% ref): maximal relative activation vs reference; for Emax: COS-7, maximal relative activation vs reference, read-out: Gal4-hPPARγ(LBD) TOP (% ref)
T3 construct: Gal4-hPPARγ(LBD); Gal4 (fusion partner); expressed in transfected cells; host or cells: COS-7 (monkey kidney)
T3 sequence (P37231 238-503 limits assumed): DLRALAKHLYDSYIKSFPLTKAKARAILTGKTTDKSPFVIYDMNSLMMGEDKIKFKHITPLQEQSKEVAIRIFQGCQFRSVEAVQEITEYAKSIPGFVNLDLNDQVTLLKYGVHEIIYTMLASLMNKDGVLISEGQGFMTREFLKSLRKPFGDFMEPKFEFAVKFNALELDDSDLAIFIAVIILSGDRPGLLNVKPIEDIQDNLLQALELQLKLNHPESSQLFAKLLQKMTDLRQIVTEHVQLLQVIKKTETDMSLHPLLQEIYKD
Method: as §1

Compound	EC50 (hPPARdelta) [nM]	Gal4-hPPARδ(LBD) TOP (% ref) (hPPARdelta)	EC50 (hPPARalpha) [nM]	Gal4-hPPARα(LBD) TOP (% ref) (hPPARalpha)	EC50 (hPPARgamma) [nM]	Gal4-hPPARγ(LBD) TOP (% ref) (hPPARgamma)	Emax (hPPARdelta) [%]	Emax (hPPARalpha) [%]	Emax (hPPARgamma) [%]	other results
COC(c1ccc(Br)cc1)C1CC1c1cc(C)c(OC(C)(C)C(=O)O)c(C)c1 (racemic) [Cpd 1-2, 2-(4-(2-(methoxy(4-bromophenyl)methyl)cyclopropyl)-2,6-dimethylphenoxy)-2-methylpropanoic acid]	54	83	186	33	19	77	–	–	–	–
COC(c1ccc(C)cc1)C1CC1c1cc(C)c(OC(C)(C)C(=O)O)c(C)c1 (racemic) [Cpd 2-1, 2-(4-(2-(methoxy(4-methylphenyl)methyl)cyclopropyl)-2,6-dimethylphenoxy)-2-methylpropanoic acid]	152	–	635	–	110	–	85	35	72	–
COC(c1ccc(SC)cc1)C1CC1c1cc(C)c(OC(C)(C)C(=O)O)c(C)c1 (racemic) [Cpd 3-2, 2-(4-(2-(methoxy(4-(methylthio)phenyl)methyl)cyclopropyl)-2,6-dimethylphenoxy)-2-methylpropanoic acid]	–	75	–	42	–	65	–	–	–	–
COC(c1ccc(C(F)(F)F)cc1)C1CC1c1cc(C)c(OC(C)(C)C(=O)O)c(C)c1 (racemic) [Cpd 4-1, 2-(4-(2-(methoxy(4-(trifluoromethyl)phenyl)methyl)cyclopropyl)-2,6-dimethylphenoxy)-2-methylpropanoic acid]	16	–	64	–	20	–	92	47	84	–
CCCCOC(c1ccc(OC(F)(F)F)cc1)C1CC1c1cc(C)c(OC(C)(C)C(=O)O)c(C)c1 (racemic) [Cpd 5-2, 2-(4-(2-(butyloxy(4-(trifluoromethoxy)phenyl)methyl)cyclopropyl)-2,6-dimethylphenoxy)-2-methylpropanoic acid]	–	60	–	47	–	72	–	–	–	–
Cc1cc(C2CC2C(OCCC2CCCCC2)c2ccc(OC(F)(F)F)cc2)cc(C)c1OC(C)(C)C(=O)O (racemic) [Cpd 6-1, 2-(4-(2-(cyclohexylethyloxy(4-(trifluoromethoxy)phenyl)methyl)cyclopropyl)-2,6-dimethylphenoxy)-2-methylpropanoic acid]	100	–	68	–	94	–	72	36	71	–
Cc1cc(C2CC2C(OCCC2CCCCC2)c2ccc(OC(F)(F)F)cc2)cc(C)c1OC(C)(C)C(=O)O (racemic) [Cpd 6-2, 2-(4-(2-(cyclohexylethyloxy(4-(trifluoromethoxy)phenyl)methyl)cyclopropyl)-2,6-dimethylphenoxy)-2-methylpropanoic acid]	131	66	26	38	34	79	–	–	–	–
COC(c1ccc(OC(F)(F)F)cc1)C1CC1c1ccc(OC(C)(C)C(=O)O)c(C)c1 (racemic) [Cpd 7-1, 2-(4-(2-(methoxy(4-(trifluoromethoxy)phenyl)methyl)cyclopropyl)-2-methylphenoxy)-2-methylpropanoic acid]	35	–	265	–	45	–	90	42	55	–
COC(c1ccc(SC(F)(F)F)cc1)C1CC1c1cc(C)c(OC(C)(C)C(=O)O)c(C)c1 (racemic) [Cpd 9-1, 2-(4-(2-(methoxy(4-(trifluoromethylthio)phenyl)methyl)cyclopropyl)-2,6-dimethylphenoxy)-2-methylpropanoic acid]	14	–	10	–	11	–	89	50	77	–
CCOC(c1ccc(OC(F)(F)F)cc1)C1CC1c1cc(C)c(OC(C)(C)C(=O)O)c(C)c1 (racemic) [Cpd 10-1, 2-(4-(2-(ethoxy(4-(trifluoromethoxy)phenyl)methyl)cyclopropyl)-2,6-dimethylphenoxy)-2-methylpropanoic acid]	14	–	38	–	95	–	90	51	74	–
COC(c1ccc(OC(F)(F)F)cc1)C1CC1c1cc(C)c(OC(C)(C)C(=O)O)c(C)c1 (racemic) [Cpd 14-1, 2-(4-(2-(methoxy(4-(trifluoromethoxy)phenyl)methyl)cyclopropyl)-2,6-dimethylphenoxy)-2-methylpropanoic acid]	–	–	–	–	–	–	–	–	–	Gal4-hPPARδ(LBD) TOP (% ref) (hPPARdelta; listed as cpd 14-1): 81 % ref; Gal4-hPPARγ(LBD) TOP (% ref) (hPPARgamma; listed as cpd 14-1): 66 % ref
COC(c1ccc(OC(F)(F)F)cc1)C1CC1c1cc(C)c(OC(C)(C)C(=O)O)c(C)c1 (racemic) [Cpd 14-2, 2-(4-(2-(methoxy(4-(trifluoromethoxy)phenyl)methyl)cyclopropyl)-2,6-dimethylphenoxy)-2-methylpropanoic acid]	–	–	–	–	–	–	–	–	–	Gal4-hPPARδ(LBD) TOP (% ref) (hPPARdelta; listed as cpd 14-2): 74 % ref; Gal4-hPPARα(LBD) TOP (% ref) (hPPARalpha; listed as cpd 14-2): 58 % ref; Gal4-hPPARγ(LBD) TOP (% ref) (hPPARgamma; listed as cpd 14-2): 58 % ref

Now from value to compound, other results behind:

EC50 (hPPARdelta) [nM]	Gal4-hPPARδ(LBD) TOP (% ref) (hPPARdelta)	EC50 (hPPARalpha) [nM]	Gal4-hPPARα(LBD) TOP (% ref) (hPPARalpha)	EC50 (hPPARgamma) [nM]	Gal4-hPPARγ(LBD) TOP (% ref) (hPPARgamma)	Emax (hPPARdelta) [%]	Emax (hPPARalpha) [%]	Emax (hPPARgamma) [%]	Compound	other results
24	73	30	43	39	–	–	–	–	CCOC(c1ccc(OC(F)(F)F)cc1)C1CC1c1cc(C)c(OC(C)(C)C(=O)O)c(C)c1 (racemic) [Cpd 10-2, 2-(4-(2-(ethoxy(4-(trifluoromethoxy)phenyl)methyl)cyclopropyl)-2,6-dimethylphenoxy)-2-methylpropanoic acid]	–
–	67	–	42	–	87	–	–	–	Cc1cc(C2CC2C(OCc2ccccc2)c2ccc(OC(F)(F)F)cc2)cc(C)c1OC(C)(C)C(=O)O (racemic) [Cpd 11-2, 2-(4-(2-(benzyloxy(4-(trifluoromethoxy)phenyl)methyl)cyclopropyl)-2,6-dimethylphenoxy)-2-methylpropanoic acid]	–
–	78	–	37	–	85	–	–	–	COC(c1ccc(C(F)(F)F)cc1F)C1CC1c1cc(C)c(OC(C)(C)C(=O)O)c(C)c1 (racemic) [Cpd 12-2, 2-(4-(2-(methoxy(2-fluoro-4-(trifluoromethyl)phenyl)methyl)cyclopropyl)-2,6-dimethylphenoxy)-2-methylpropanoic acid]	–
–	57	–	28	–	71	–	–	–	COC(c1ccccc1OC(F)(F)F)C1CC1c1cc(C)c(OC(C)(C)C(=O)O)c(C)c1 (racemic) [Cpd 13-2, 2-(4-(2-(methoxy(2-(trifluoromethyloxy)phenyl)methyl)cyclopropyl)-2,6-dimethylphenoxy)-2-methylpropanoic acid]	–

Reference: US9115073B2, “1,3-diphenylpropane derivatives, preparations and uses thereof” (GENFIT, priority 2011, dated 2015)
